{"source": "paper PMC8190631", "about": "“Molecular Interactions between Two LMP2A PY Motifs of EBV and WW Domains of E3 Ubiquitin Ligase AIP4” (Life, 2021)", "molecular_target": "T1, WW2 domain of human AIP4 (Homo sapiens, UniProt Q96J02)", "T1 construct": "The gene (114 bp) encoding the WW2 domain of human AIP4; Ssp DnaB intein (pTWIN1) (N, cleaved yes); made in house", "T1 sequence (Q96J02 359-391)": "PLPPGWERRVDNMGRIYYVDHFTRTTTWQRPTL", "assay": "NMR titration (2D 1H-15N HSQC chemical shift perturbation) of WW2 domain with LMP2A constructs", "assay_type": "binding", "note": "Ends that are not written are not given here."}
{"substance": "PPPPY [PY peptide]", "values": [{"measurement": "Kd", "result": 389, "unit": "µM"}]}
